# Tests used:
# [1] = tested on: IL-4 and IFN-γ; assay: Serum cytokines after i.v. injection into mice (ELISA); format: in vivo, C57BL/6 mice; conditions: for cytokine release in serum (IL-4, IFN-γ, IL-12p40/70): wild type mice, 1 μg i.v., 2, 6 and 18-24 h
# Procedure: C57BL/6 or iNKT^−/− mice were injected i.v. with 1 μg of vehicle, α-GalCer, analog or 25 μg MPL. Twenty hours after injection splenocytes were stained with antibodies against CD11c, B220 and CD86 and analyzed by flow cytometry. (A) Maturation was assessed by the upregulation of CD86 at the cell surface, gating on DC (CD11c^+). Mean fluorescence intensity for each histogram is indicated. These are representative profiles of two independent experiments. 2, 6 and 18-24 h after injection as described, the mice were bled and the serum tested with ELISA for the presence of (B) IL-4 and (C) IFN-γ released in response to the analog.
# Stimulation of iNKT cells by α-GalCer in the context of CD1d rapidly induces release of significant levels of a number of cytokines including IFN-γ and IL-4 (Burdin, Brossay et al, J Immunol, 1998, 161; 3271-81), IL-3 and GM-CSF (Leite-de-Moraes, Lisbonne et al, Eur J Immunol, 2002, 32; 1897-904) with other downstream cell-types including DC (Kitamura, Iwakabe et al, J Exp Med, 1999, 189; 1121-8) and NK cells (Carnaud, Lee et al, J Immunol, 1999, 163; 4647-50) being activated.
# [2] = tested on: antigen-specific CD8^+ T cells; assay: OVA-specific CD8+ T cells after co-injection with OVA ([…]-Kb tetramer); format: in vivo, C57BL/6 mice; conditions: 1 μg with 800 μg OVA, 6 days
# Procedure: (§1) (A) C57BL/6 mice were co-injected with 1 μg α-GalCer or analog and 800 μg OVA. 6 days later blood samples taken from the tail vein were stained directly ex vivo with fluorescent […]-K^b tetramers and an anti-CD8 antibody and analyzed by flow cytometry. Data are shown as tetramer positive cells as a percentage of CD8^+ cells. (B) 7 days after injection, the mice were challenged in a prophylactic setting with 1×10^6 E.G7-OVA tumour cells s.c. and the size of the tumour monitored over subsequent days.
# Previously we, and others have shown that co-injection of model antigens such as OVA (Silk, Hermans et al, J Clin Invest, 2004, 114; 1800-11, Fujii, Shimizu et al, J Exp Med, 2003, 198; 267-79, Hermans, Silk et al, J Immunol, 2003, 171; 5140-7) and β-galactosidase (Silk, Hermans et al, J Clin Invest, 2004, 114; 1800-11) together with α-GalCer induces enhanced CD8^+, CD4^+ T cell and B cell responses. These were effective for therapy against tumour cells expressing the target antigen. The various analogs were co-injected with OVA into wild type mice and 6 days later the blood examined for the presence of antigen-specific CD8^+ T cells using fluorescent K^b-[…] tetramers.
# [3] = tested on: human monocyte derived DCs; assay: Example A: DC maturation markers in human monocyte derived DC with NKT cells (FACS); format: cell-based; conditions: 100 ng/ml, 36 hours, 10 DC/NKT cell
# Procedure: The methodology of Salio, et al., J. Immunol., 167:1188-1197 (2001), incorporated by reference, was followed. In brief, 2×105 human monocyte derived DCs were pulsed with 100 ng/ml of one of Compounds 2, 3, αGal-Cer, or vehicle solution, as a control. For DC pulsing, each of arabinitol ceramide (Compound 1), threitol ceramide (Compound 3), glycerol ceramide (Compound 2) and αGal-Cer was solubilized in vehicle solution (0.5% Tween 20/PBS), and added to the medium of the DC cultures. […] After 36 hours, supernatant was removed from cultures and analyzed for the presence of known DC maturation markers CD83, CD80, CD86, CD25, and CD38, all of which were analyzed via FACS, using well known methods.
# [4] = tested on: OVA specific IgG antibodies; assay: Example D: OVA specific IgG antibodies in serum of immunized mice (ELISA); format: in vivo; conditions: ten days following immunization
# Procedure: OVA protein coated ELISA plates, were prepared, using well known methods. Then, blood samples were taken, ten days following immunization, and serum was prepared.
# The samples were taken from mice that had been immunized with OVA only, OVA and Compound 1, arabinitol ceramide, OVA and αGal-Cer, or OVA and Compound 2, glycerol ceramide. Additionally, mice were immunized with each of these schedules with MPL added. Serum IgG titers were measured by adding serial dilutions of mouse serum were detected using horseradish peroxidase (HRP) conjugated α-mouse IgG.
# [5] = tested on: human DC; assay: DC maturation in co-culture of human DC and iNKT cells (flow cytometry CD83, CD86, CD38); format: cell-based; conditions: for DC maturation (upregulation of CD83, CD86 and CD38): human DC with iNKT cell clone, 24 hours; for concentration inducing maximal DC maturation: titration on DC, 48 h
# Procedure: Different analogs of α-GalCer as indicated or LPS were added to co-cultures of human DC and iNKT cells. (A) Maturation of the DC was assessed after 40 h, gating on CD11c positive cells. Histograms indicate the CD83 and CD86 profiles of DC from different treatments; the percentages indicate the percentage of CD83hi mature DC and the numbers in parenthesis, the mean fluorescence intensity of the population contained within the labeled gate. DC and iNKT cells were co-cultured in the presence of different analogs of α-GalCer for 24 hours. Supernatants were analyzed using ELISA for the presence of (B) IL-12p40 released by the DC and (C) IFN-γ from the iNKT cells. […] Cells were co-cultured in the presence of the indicated concentration of analog and the percentages of DC with increased CD83/CD80 are shown. […] Viability of α-GalCer or analog-pulsed DC was assessed after 40 h co-culture in the presence of iNKT cells by flow cytometry. Cells were stained with propidium iodide and the percentage of live CD11c gated cells remaining in the culture are shown.
# Human monocyte-derived DC were pulsed with 150 ng of different inositol analogs and co-cultured with iNKT cells for 24 h. […] Numbers indicate the mean fluorescence intensity of the histogram gated on CD11c^+ cells.
# Immature human DC were cultured in the presence of a human iNKT cell clone with or without analogs or vehicle at different concentrations.
# To compare the functions of high affinity α-GalCer, intermediate affinity threitolceramide with the known, low affinity analog OCH, the three compounds were titrated onto DC and used to present to iNKT cells. Maturation of DC and DC viability were examined after 48 h.
# [6] = tested on: E.G7-OVA tumour cells; assay: Prophylactic challenge with E.G7-OVA tumour cells after co-injection with OVA; format: in vivo, C57BL/6 mice; conditions: injected with OVA, challenge 7 days later with 1×10^6 E.G7-OVA s.c.
# Procedure: as §1
SMILES,"cytokine release in serum (IL-4, IFN-γ, IL-12p40/70) [1]",antigen-specific CD8+ T cell response [2],"induction of DC maturation markers (CD83, CD80, CD86, CD25, CD38) [3]","OVA specific antibody response, adjuvant effect compared with MPL [4]","DC maturation (upregulation of CD83, CD86 and CD38) [5]",concentration inducing maximal DC maturation [5],skewing of cytokine response to Th2 ([1]; compared with OCH),potency of cytokine induction compared with α-GalCer ([1]; equivalent doses),tumour growth [6]
"CCCCCCCCCCCCCCCCCCCCCCCCCC(=O)N[C@@H](COC[C@@H](O)CO)[C@H](O)[C@H](O)CCCCCCCCCCCCCC [Compound 2, Glycerol Ceramide]",did not induce any detectable cytokine release,did not,DC maturation markers are induced,less effective than MPL whilst still producing OVA specific antibodies,–,–,–,–,–
"CCCCCCCCCCCCCCCCCCCCCCCCCC(=O)N[C@@H](COC[C@H](O)[C@@H](O)CO)[C@H](O)[C@H](O)CCCCCCCCCCCCCC [Compound 3, Threitol Ceramide]",detected in the serum with a similar time-course to that seen with α-GalCer,"induced a significant CD8^+ T cell response after 6 days, although less potently than α-GalCer",DC maturation markers are induced,–,more potent than glycerolceramide and arabinitolceramide,67 ng/mL,Neither compound showed a skewed Th2 cytokine response,less potent than α-GalCer at equivalent doses,little or no tumour growth
"CCCCCCCCCCCCCCCCCCCCCCCCCC(=O)N[C@@H](CO[C@H]1OC(CO)[C@H](O)C(O)C1O)[C@H](O)[C@H](O)CCCCCCCCCCCCCC (stereo partly drawn) [α-GalCer, α galactosylceramide, reference compound]",–,–,–,more effective as adjuvants than MPL,significant upregulation of all the markers examined,0.8 ng/mL,–,–,little or no tumour growth

# Reference: patent US8039670B2, “Analogs of alpha galactosyceramide and uses thereof” (Ludwig Institute for Cancer Research, priority 2005, dated 2011)
